What was measured:
IRAK1 = target: T1, IRAK1 (Homo sapiens, UniProt P51617); assay: IRAK1 enzymatic assay (ADP-Glo luminescence); format: biochemical; details: purified human recombinant His-TEV-IRAK1 (194-712)
T1 construct: His-TEV-IRAK1 (194-712); His (N); TEV cleavage site (N)
Outline: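 Luminescent ADP-Glo read-out of ATP turnover by purified His-TEV-IRAK1 (194-712) at 0.3 μg/ml after a 2-hour RT reaction. Compounds, serially diluted from 10 μM to 0.5 nM, were preincubated with enzyme 15 minutes in Hepes pH 7.0 buffer with MgCl2, DTT, EGTA and Triton X-100.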

IRAK4 = target: T2, IRAK4 (Homo sapiens, UniProt Q9NWZ3); assay: IRAK4 enzymatic assay (ADP-Glo luminescence); format: biochemical; details: purified human recombinant His-TEV-IRAK4 (1-460), ATP 2 μM
T2 construct: His-TEV-IRAK4 (1-460); His (N); TEV cleavage site (N)
T2 sequence (Q9NWZ3 1-460): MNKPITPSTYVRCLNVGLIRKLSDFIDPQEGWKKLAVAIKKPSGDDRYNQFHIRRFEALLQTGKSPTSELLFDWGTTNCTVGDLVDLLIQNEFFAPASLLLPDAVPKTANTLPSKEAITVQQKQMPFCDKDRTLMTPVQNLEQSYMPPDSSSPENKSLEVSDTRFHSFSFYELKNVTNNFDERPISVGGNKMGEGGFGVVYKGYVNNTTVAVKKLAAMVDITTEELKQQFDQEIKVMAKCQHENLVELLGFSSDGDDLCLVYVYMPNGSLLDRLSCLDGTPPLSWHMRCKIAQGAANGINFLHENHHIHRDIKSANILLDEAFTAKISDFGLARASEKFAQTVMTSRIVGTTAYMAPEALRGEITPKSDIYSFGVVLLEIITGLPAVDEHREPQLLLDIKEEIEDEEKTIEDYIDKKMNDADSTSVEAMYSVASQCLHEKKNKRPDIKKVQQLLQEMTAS
Outline: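 ADP-Glo luminescence read-out after a 2 h RT kinase reaction with 2 μM ATP and 300 nM biotinylated STK1 peptide. Enzyme (His-TEV-IRAK4 1-460, 0.3 μg/ml) first incubated 15 min with serially diluted compounds (10 μM–0.5 nM) in 50 mM Hepes pH 7.0, 10 mM MgCl2, 5 mM MnCl2.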

T1 sequence (P51617 194-712): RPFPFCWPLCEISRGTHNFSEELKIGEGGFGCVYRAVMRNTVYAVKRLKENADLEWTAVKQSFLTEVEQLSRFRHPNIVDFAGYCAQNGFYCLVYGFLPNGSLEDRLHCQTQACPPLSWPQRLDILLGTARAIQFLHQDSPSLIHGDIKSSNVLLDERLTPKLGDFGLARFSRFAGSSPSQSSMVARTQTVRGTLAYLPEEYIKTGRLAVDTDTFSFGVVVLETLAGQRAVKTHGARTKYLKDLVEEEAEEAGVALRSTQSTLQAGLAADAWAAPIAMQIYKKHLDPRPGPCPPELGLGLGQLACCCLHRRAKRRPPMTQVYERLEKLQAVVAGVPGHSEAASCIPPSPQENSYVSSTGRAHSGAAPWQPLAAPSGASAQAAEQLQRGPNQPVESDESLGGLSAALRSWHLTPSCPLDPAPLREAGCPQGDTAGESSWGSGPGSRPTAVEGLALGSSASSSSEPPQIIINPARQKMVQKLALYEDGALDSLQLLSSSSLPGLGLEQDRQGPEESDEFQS

IC50 (IRAK1) | IC50 (IRAK4) | Compound
100 to 1000 nM | ≤ 100 nM | O=C(/N=c1\[nH]c2cc(N3CCOCC3=O)ccc2n1CCCO)c1cccc(OC(F)(F)F)c1 [Compound 7, (E)-N-(1-(3-hydroxypropyl)-5-(3-oxomorpholino)-1H-benzo[d]imidazol-2(3H)-ylidene)-3-(trifluoromethoxy)benzamide]
100 to 1000 nM | ≤ 100 nM | CC1(C)OCCN(c2ccc3c(c2)[nH]/c(=N\C(=O)c2cccc(C(F)F)c2)n3CCCO)C1=O [Example 222, (E)-3-(difluoromethyl)-N-(5-(2,2-dimethyl-3-oxomorpholino)-1-(3-hydroxypropyl)-1H-benzo[d]imidazol-2(3H)-ylidene)benzamide]
≤ 100 nM | ≤ 100 nM | N#Cc1cccc(C(=O)/N=c2\[nH]c3cc(N4CCCOC4=O)ccc3n2CCCO)c1 [Compound 58, (E)-3-cyano-N-(1-(3-hydroxypropyl)-5-(2-oxo-1,3-oxazinan-3-yl)-1H-benzo[d]imidazol-2(3H)-ylidene)benzamide]
≤ 100 nM | ≤ 100 nM | O=C(/N=c1\[nH]c2cc(N3C(=O)CN(C4CC4)CC34CC4)ccc2n1CCCO)c1cccc(C(F)(F)F)c1 [Example 197, (E)-N-(5-(7-cyclopropyl-5-oxo-4,7-diazaspiro[2.5]octan-4-yl)-1-(3-hydroxypropyl)-1H-benzo[d]imidazol-2(3H)-ylidene)-3-(trifluoromethyl)benzamide]
100 to 1000 nM | ≤ 100 nM | O=C(/C=C1\Nc2cc(N3CCOCC3=O)ccc2N1CCCO)c1cccc(C(F)(F)F)n1 [Compound 147, (E)-4-(1-(3-hydroxypropyl)-2-(2-oxo-2-(6-(trifluoromethyl)pyridin-2-yl)ethylidene)-2,3-dihydro-1H-benzo[d]imidazol-5-yl)morpholin-3-one]
100 to 1000 nM | ≤ 100 nM | O=C(/N=c1\[nH]c2cc(N3CCOCC3=O)ccc2n1CCCO)c1cncc(C(F)(F)F)c1 [Compound 85, (E)-N-(1-(3-hydroxypropyl)-5-(3-oxomorpholino)-1H-benzo[d]imidazol-2(3H)-ylidene)-5-(trifluoromethyl)nicotinamide]
100 to 1000 nM | ≤ 100 nM | CC1(C)CCOC(=O)N1c1ccc2[nH]c(=NC(=O)c3cccc(C(F)F)c3)n(CCCO)c2c1 [Example 219]
100 to 1000 nM | ≤ 100 nM | C[C@H](CCO)n1/c(=N/C(=O)c2cccc(C(F)(F)F)c2)[nH]c2cc(N3CCOCC3=O)ccc21 [Compound 15, (R,E)-N-(1-(4-hydroxybutan-2-yl)-5-(3-oxomorpholino)-1H-benzo[d]imidazol-2(3H)-ylidene)-3-(trifluoromethyl)benzamide]
100 to 1000 nM | ≤ 100 nM | CC1(C)CN(c2ccc3c(c2)[nH]/c(=N\C(=O)c2cccc(C(F)(F)F)c2)n3CCCO)C(=O)O1 [Example 199, (E)-N-(5-(5,5-dimethyl-2-oxooxazolidin-3-yl)-1-(3-hydroxypropyl)-1H-benzo[d]imidazol-2(3H)-ylidene)-3-(trifluoromethyl)benzamide]
> 1000 nM | ≤ 100 nM | O=C(/N=c1\[nH]c2cc(N3CC4CCC(C3=O)N4C3CC3)ccc2n1CCCO)c1cccc(C(F)(F)F)c1 (centres unmarked) [Example 215, (E)-N-(5-(8-cyclopropyl-2-oxo-3,8-diazabicyclo[3.2.1]octan-3-yl)-1-(3-hydroxypropyl)-1H-benzo[d]imidazol-2(3H)-ylidene)-3-(trifluoromethyl)benzamide]
≤ 100 nM | ≤ 100 nM | CS(=O)(=O)CCCn1/c(=N/C(=O)c2cccc(C(F)F)c2)[nH]c2cc(N3CCOCC3=O)ccc21 [Compound 90, (E)-3-(difluoromethyl)-N-(1-(3-(methylsulfonyl)propyl)-5-(3-oxomorpholino)-1H-benzo[d]imidazol-2(3H)-ylidene)benzamide]
100 to 1000 nM | ≤ 100 nM | O=C(/N=c1\[nH]c2cc(N3CCSCC3=O)ccc2n1CCCO)c1cccc(C(F)(F)F)c1 [Compound 186, (E)-N-(1-(3-hydroxypropyl)-5-(3-oxothiomorpholino)-1H-benzo[d]imidazol-2(3H)-ylidene)-3-(trifluoromethyl)benzamide]
100 to 1000 nM | ≤ 100 nM | N#Cc1cccc(C(=O)/N=c2\[nH]c3cc(N4CCOCC4=O)ccc3n2CCCCO)c1 [Compound 18, (E)-3-cyano-N-(1-(4-hydroxybutyl)-5-(3-oxomorpholino)-1H-benzo[d]imidazol-2(3H)-ylidene)benzamide]
≤ 100 nM | ≤ 100 nM | NS(=O)(=O)c1cccc(C(=O)/N=c2\[nH]c3cc(N4CCOCC4=O)ccc3n2CCCO)c1 [Compound 100, (E)-N-(1-(3-hydroxypropyl)-5-(3-oxomorpholino)-1H-benzo[d]imidazol-2(3H)-ylidene)-3-sulfamoylbenzamide]
100 to 1000 nM | ≤ 100 nM | CN1CCN(c2ccc3c(c2)[nH]/c(=N\C(=O)c2cccc(C(F)F)c2)n3CCCO)C(=O)C1 [Compound 111, (E)-3-(difluoromethyl)-N-(1-(3-hydroxypropyl)-5-(4-methyl-2-oxopiperazin-1-yl)-1H-benzo[d]imidazol-2(3H)-ylidene)benzamide]
≤ 100 nM | ≤ 100 nM | COc1cc2c(cc1N1CCOCC1=O)[nH]/c(=N\C(=O)c1cccc(C(F)(F)F)c1)n2CCCO [Compound 76, (E)-N-(1-(3-hydroxypropyl)-6-methoxy-5-(3-oxomorpholino)-1H-benzo[d]imidazol-2(3H)-ylidene)-3-(trifluoromethyl)benzamide]
100 to 1000 nM | ≤ 100 nM | O=C(/N=c1\[nH]c2cc(N3CCCOC3=O)ccc2n1CCC(F)(F)F)c1cccc(C(F)(F)F)c1 [Compound 176, (E)-N-(5-(2-oxo-1,3-oxazinan-3-yl)-1-(3,3,3-trifluoropropyl)-1H-benzo[d]imidazol-2(3H)-ylidene)-3-(trifluoromethyl)benzamide]
≤ 100 nM | ≤ 100 nM | O=C(/N=c1\[nH]c2cc(N3CCOCC3=O)c(C3CC3)cc2n1CCCO)c1cccc(C(F)(F)F)c1 [Example 208, (E)-N-(6-cyclopropyl-1-(3-hydroxypropyl)-5-(3-oxomorpholino)-1H-benzo[d]imidazol-2(3H)-ylidene)-3-(trifluoromethyl)benzamide]
100 to 1000 nM | 100 to 1000 nM | O=C(/N=c1\[nH]c2cc(N3CCOCC3=O)ccc2n1CCCO)c1cccc(-n2cnnc2)c1 [Compound 2, (E)-N-(1-(3-hydroxypropyl)-5-(3-oxomorpholino)-1H-benzo[d]imidazol-2(3H)-ylidene)-3-(4H-1,2,4-triazol-4-yl)benzamide]
100 to 1000 nM | ≤ 100 nM | CC1(C)COC(=O)N1c1ccc2c(c1)[nH]/c(=N\C(=O)c1cccc(C(F)F)c1)n2CCCO [Example 196, (E)-3-(difluoromethyl)-N-(5-(4,4-dimethyl-2-oxooxazolidin-3-yl)-1-(3-hydroxypropyl)-1H-benzo[d]imidazol-2(3H)-ylidene)benzamide]
> 1000 nM | 100 to 1000 nM | CCC(CCO)n1/c(=N/C(=O)c2cccc(C(F)(F)F)c2)[nH]c2cc(N3CCOCC3=O)ccc21 (racemic) [Compound 124, rac-(E)-N-(1-(1-hydroxypentan-3-yl)-5-(3-oxomorpholino)-1H-benzo[d]imidazol-2(3H)-ylidene)-3-(trifluoromethyl)benzamide]
≤ 100 nM | ≤ 100 nM | O=C(/N=c1\[nH]c2cc(N3CCOCC3=O)ccc2n1CC1(CO)CC1)c1cccc(C(F)F)c1 [Compound 14, (E)-3-(difluoromethyl)-N-(1-((1-(hydroxymethyl)cyclopropyl)methyl)-5-(3-oxomorpholino)-1H-benzo[d]imidazol-2(3H)-ylidene)benzamide]
100 to 1000 nM | ≤ 100 nM | O=C(/N=c1\[nH]c2cc(N3CCNCC3=O)ccc2n1CCCO)c1cccc(C(F)F)c1 [Compound 109, (E)-3-(difluoromethyl)-N-(1-(3-hydroxypropyl)-5-(2-oxopiperazin-1-yl)-1H-benzo[d]imidazol-2(3H)-ylidene)benzamide]
100 to 1000 nM | ≤ 100 nM | C[S+]([O-])CCCn1/c(=N/C(=O)c2cccc(C(F)F)c2)[nH]c2cc(N3CCOCC3=O)ccc21 (centres unmarked) [Compound 91, (E)-3-(difluoromethyl)-N-(1-(3-(methylsulfinyl)propyl)-5-(3-oxomorpholino)-1H-benzo[d]imidazol-2(3H)-ylidene)benzamide]
≤ 100 nM | ≤ 100 nM | COc1cc2c(cc1N1CCOCC1=O)[nH]/c(=N\C(=O)c1cc(F)cc(C(F)(F)F)c1)n2CCCO [Compound 73, (E)-3-fluoro-N-(1-(3-hydroxypropyl)-6-methoxy-5-(3-oxomorpholino)-1H-benzo[d]imidazol-2(3H)-ylidene)-5-(trifluoromethyl)benzamide]

Reference: US10059701B2 (Merck Patent GmbH, priority 2015, dated 2018)
